# Source: ChEMBL document CHEMBL1128773, “Synthesis and pharmacological profile of FCE 28654: A water-soluble and injectable ACAT inhibitor” (Bioorg Med Chem Lett, 1995)
# Key:
# Mus musculus [1] = assay: Effect of single oral administration of 10 mg/kg of compound on phospholipids of hypercholesterolemic mice; assay type: functional, organism-based; parameters: dose 10 mg/kg
# Mus musculus [2] = assay: Effect of single oral administration of 10 mg/kg of compound on triglycerides of hypercholesterolemic mice; assay type: functional, organism-based; parameters: dose 10 mg/kg
# Rattus norvegicus [3] = assay: Effect of single oral administration of 15 mg/kg of compound on cholesterol esters of hypercholesterolemic rats; assay type: functional, organism-based; parameters: dose 15 mg/kg
# [4] = target: T1, Sterol O-acyltransferase 1 (Rattus norvegicus) (UniProt O70536); assay: (§1) Inhibition of microsomal acyl-CoA: cholesterol acyltransferase in the presence of plasma from rats administered orally with 100 mg/kg of the compound; pmoles [14C]-Cholesteryl oleate formed / mg protein / min incubation; assay type: functional, organism-based; parameters: dose 100 mg/kg
# T1 sequence (whole entry): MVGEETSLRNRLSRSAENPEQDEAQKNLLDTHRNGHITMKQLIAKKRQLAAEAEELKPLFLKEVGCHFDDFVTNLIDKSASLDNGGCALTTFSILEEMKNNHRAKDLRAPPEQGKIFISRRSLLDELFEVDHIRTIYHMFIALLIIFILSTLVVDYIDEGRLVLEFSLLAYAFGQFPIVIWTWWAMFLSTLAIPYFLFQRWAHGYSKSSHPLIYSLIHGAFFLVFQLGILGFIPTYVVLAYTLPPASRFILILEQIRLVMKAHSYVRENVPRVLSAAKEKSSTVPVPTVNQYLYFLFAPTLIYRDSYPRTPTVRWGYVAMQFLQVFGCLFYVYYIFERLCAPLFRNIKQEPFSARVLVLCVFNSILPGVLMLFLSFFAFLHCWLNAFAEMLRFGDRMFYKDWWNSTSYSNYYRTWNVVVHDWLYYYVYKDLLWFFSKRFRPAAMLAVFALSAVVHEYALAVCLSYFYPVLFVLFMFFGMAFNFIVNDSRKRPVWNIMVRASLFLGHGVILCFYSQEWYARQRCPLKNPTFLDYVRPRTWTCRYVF
# [5] = Ratio of effect of single iv administration of compound at dose 2 mg/kg on liver free cholesterol/cholesterol esters of hypercholesterolemic rats; assay type: functional
# [6] = target: T2, Acyl-CoA:cholesterol acyltransferase (Oryctolagus cuniculus, UniProt Q95214); assay: Inhibitory activity against acyl-CoA: cholesterol acyltransferase (ACAT) in microsomes from cholesterol-fed rabbit thoracic aorta
# T2 sequence (Q95214 whole entry): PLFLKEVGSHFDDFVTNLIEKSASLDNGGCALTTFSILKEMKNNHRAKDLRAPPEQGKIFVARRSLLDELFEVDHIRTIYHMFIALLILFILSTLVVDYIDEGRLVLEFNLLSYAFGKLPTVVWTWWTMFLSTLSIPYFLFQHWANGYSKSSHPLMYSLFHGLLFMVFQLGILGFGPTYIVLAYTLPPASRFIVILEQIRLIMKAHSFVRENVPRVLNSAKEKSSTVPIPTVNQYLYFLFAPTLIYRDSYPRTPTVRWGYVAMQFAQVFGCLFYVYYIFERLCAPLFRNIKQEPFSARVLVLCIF
# Rattus norvegicus [7] = assay: Effect of single oral administration of 15 mg/kg of compound on phospholipids of hypercholesterolemic rats; assay type: functional, organism-based; parameters: dose 15 mg/kg
# [8] = Ratio of effect of single iv administration of compound at dose 10 mg/kg on liver free cholesterol/cholesterol esters of hypercholesterolemic mice; assay type: functional
# Rattus norvegicus [9] = assay: Effect of single oral administration of 15 mg/kg of compound on free cholesterol of hypercholesterolemic rats; assay type: functional, organism-based; parameters: dose 15 mg/kg
# [10] = Ratio of effect of single oral administration of 15 mg/kg of compound on liver free cholesterol/cholesterol esters of hypercholesterolemic rats; assay type: functional
# Rattus norvegicus [11] = assay: Effect of single oral administration of 2 mg/kg of compound on triglycerides of hypercholesterolemic rats; assay type: functional, organism-based; parameters: dose 2 mg/kg
# Mus musculus [12] = assay: Effect of single oral administration of 10 mg/kg of compound on cholesterol esters of hypercholesterolemic mice; assay type: functional, organism-based; parameters: dose 10 mg/kg
# Rattus norvegicus [13] = assay: Effect of single oral administration of 2 mg/kg of compound on free cholesterol of hypercholesterolemic rats; assay type: functional, organism-based; parameters: dose 2 mg/kg
# Mus musculus [14] = assay: Effect of single oral administration of 10 mg/kg of compound on free cholesterol of hypercholesterolemic mice; assay type: functional, organism-based; parameters: dose 10 mg/kg
# Rattus norvegicus [15] = assay: Effect of single oral administration of 15 mg/kg of compound on triglycerides of hypercholesterolemic rats; assay type: functional, organism-based; parameters: dose 15 mg/kg
# Rattus norvegicus [16] = assay: Effect of single oral administration of 2 mg/kg of compound on phospholipids of hypercholesterolemic rats; assay type: functional, organism-based; parameters: dose 2 mg/kg
# Rattus norvegicus [17] = assay: Effect of single oral administration of 2 mg/kg of compound on cholesterol esters of hypercholesterolemic rats; assay type: functional, organism-based; parameters: dose 2 mg/kg
# [18] = target: T2, Acyl-CoA:cholesterol acyltransferase; assay: Inhibitory activity against acyl-CoA: cholesterol acyltransferase (ACAT) in microsomes from cholesterol-fed rabbit intestinal mucosa
# [19] = target: T1, Sterol O-acyltransferase 1 (Rattus norvegicus); assay: as §1; assay type: organism-based; parameters: dose 100 mg/kg
Compound,Plasma lipids (Mus musculus [1]) [mg/dL],Plasma lipids (Mus musculus [2]) [mg/dL],Plasma lipids (Rattus norvegicus [3]) [mg/dL],Activity [4],Ratio [5],IC50 [6] [µM],Plasma lipids (Rattus norvegicus [7]) [mg/dL],Ratio [8],Plasma lipids (Rattus norvegicus [9]) [mg/dL],Ratio [10],Plasma lipids (Rattus norvegicus [11]) [mg/dL],Plasma lipids (Mus musculus [12]) [mg/dL],Plasma lipids (Rattus norvegicus [13]) [mg/dL],Plasma lipids (Mus musculus [14]) [mg/dL],Plasma lipids (Rattus norvegicus [15]) [mg/dL],Plasma lipids (Rattus norvegicus [16]) [mg/dL],Plasma lipids (Rattus norvegicus [17]) [mg/dL],IC50 [18] [µM],Activity [19]
CC(C)c1cccc(C(C)C)c1NC(=O)NCC1(c2ccc(OP(=O)(O)O)cc2)O[C@H](C)[C@@H](C)O1,142,71,73,148,0.188,2.55,84,0.316,28,0.38,126,79,39,26,98,138,134,1.08,–
CC(C)c1cccc(C(C)C)c1NC(=O)NCC1(c2ccc(O)cc2)O[C@H](C)[C@@H](C)O1,–,–,75,–,–,–,96,–,33,–,–,–,–,–,126,–,–,–,–
CC(C)c1cccc(C(C)C)c1NC(=O)NCC1(c2ccccc2)O[C@H](C)[C@@H](C)O1,–,–,57,–,–,0.0242,77,–,18,–,–,–,–,–,76,–,–,0.027,286
